Assays:
Format in all cases: organism-based
[1] = system: Brassica oleracea var. capitata; experiment: Phytotoxicity against Brassica oleracea var. capitata (cabbage) assessed as yield at 2400 g a.i./ha applied 1 to 2 days after transplantation (reference value: 25.9 tons/ha); settings: in vivo, other
[2] = system: Brassica oleracea var. capitata; experiment: Phytotoxicity against Brassica oleracea var. capitata (cabbage) assessed as cabbage head weight at 2400 g a.i/ha applied 1 to 2 days prior to transplantation (reference value: 2465 g); settings: in vivo, other
[3] = system: Brassica oleracea var. capitata; experiment: Phytotoxicity against Brassica oleracea var. capitata (cabbage) assessed as cabbage head weight at 1600 g a.i/ha applied 1 to 2 days after transplantation (reference value: 2465 g); settings: in vivo, other
[4] = system: Brassica oleracea var. capitata; experiment: Phytotoxicity against Brassica oleracea var. capitata (cabbage) assessed as yield at 800 g a.i./ha applied 1 to 2 days after transplantation (reference value: 25.9 tons/ha); settings: in vivo, other
[5] = system: Brassica oleracea var. capitata; experiment: Phyototoxicity against Brassica oleracea var. capitata (cabbage) assessed as crop injury at 1600 g a.i./ha applied 1 to 2 days after transplantation measured on day 28 post-transplantation; settings: in vivo, other
[6] = system: Brassica oleracea var. capitata; experiment: Phyototoxicity against Brassica oleracea var. capitata (cabbage) assessed as crop injury at 1600 g a.i./ha applied 1 to 2 days prior to transplantation followed by incorporation into soil measured on day 14 post-transplantation; settings: in vivo, other
[7] = system: Brassica oleracea var. capitata; experiment: Phyototoxicity against Brassica oleracea var. capitata (cabbage) assessed as crop injury at 800 g a.i./ha applied 1 to 2 days prior to transplantation measured on day 7 post-transplantation; settings: in vivo, other
[8] = system: Brassica oleracea var. capitata; experiment: Phyototoxicity against Brassica oleracea var. capitata (cabbage) assessed as crop injury at 2400 g a.i./ha applied 1 to 2 days prior to transplantation measured on day 28 post-transplantation; settings: in vivo, other
[9] = system: Brassica oleracea var. capitata; experiment: Phyototoxicity against Brassica oleracea var. capitata (cabbage) assessed as crop injury at 2400 g a.i./ha applied 1 to 2 days prior to transplantation followed by incorporation into soil measured on day 14 post-transplantation; settings: in vivo, other
[10] = system: Brassica oleracea var. capitata; experiment: Phytotoxicity against Brassica oleracea var. capitata (cabbage) assessed as yield at 1600 g a.i./ha applied 1 to 2 days prior to transplantation (reference value: 25.9 tons/ha); settings: in vivo, other
[11] = system: Brassica oleracea var. capitata; experiment: Phytotoxicity against Brassica oleracea var. capitata (cabbage) assessed as yield at 800 g a.i./ha applied 1 to 2 days prior to transplantation (reference value: 25.9 tons/ha); settings: in vivo, other
[12] = system: Brassica oleracea var. capitata; experiment: Phyototoxicity against Brassica oleracea var. capitata (cabbage) assessed as crop injury at 2400 g a.i./ha applied 1 to 2 days prior to transplantation followed by incorporation into soil measured on day 28 post-transplantation; settings: in vivo, other
[13] = system: Brassica oleracea var. capitata; experiment: Phyototoxicity against Brassica oleracea var. capitata (cabbage) assessed as crop injury at 2400 g a.i./ha applied 1 to 2 days prior to transplantation followed by incorporation into soil measured on day 7 post-transplantation; settings: in vivo, other
[14] = system: Brassica oleracea var. capitata; experiment: Phyototoxicity against Brassica oleracea var. capitata (cabbage) assessed as crop injury at 1600 g a.i./ha applied 1 to 2 days prior to transplantation followed by incorporation into soil measured on day 28 post-transplantation; settings: in vivo, other
[15] = system: Brassica oleracea var. capitata; experiment: Phytotoxicity against Brassica oleracea var. capitata (cabbage) assessed as decrease in number of marketable cabbage heads at 800 to 2400 g i.a./ha applied 1 to 2 days prior to transplantation followed by incorporation into soil relative to control; settings: in vivo, other
[16] = system: Brassica oleracea var. capitata; experiment: Phyototoxicity against Brassica oleracea var. capitata (cabbage) assessed as crop injury at 1600 g a.i./ha applied 1 to 2 days after transplantation measured on day 14 post-transplantation; settings: in vivo
[17] = system: Brassica oleracea var. capitata; experiment: Phytotoxicity against Brassica oleracea var. capitata (cabbage) assessed as cabbage head weight at 800 g a.i/ha applied 1 to 2 days after transplantation (reference value: 2465 g); settings: in vivo, other
[18] = system: Brassica oleracea var. capitata; experiment: Phyototoxicity against Brassica oleracea var. capitata (cabbage) assessed as crop injury at 800 g a.i./ha applied 1 to 2 days after transplantation measured on day 7 post-transplantation; settings: in vivo, other
[19] = system: Brassica oleracea var. capitata; experiment: Phyototoxicity against Brassica oleracea var. capitata (cabbage) assessed as crop injury at 2400 g a.i./ha applied 1 to 2 days after transplantation measured on day 7 post-transplantation; settings: in vivo, other
[20] = system: Brassica oleracea var. capitata; experiment: Phyototoxicity against Brassica oleracea var. capitata (cabbage) assessed as crop injury at 2400 g a.i./ha applied 1 to 2 days after transplantation measured on day 14 post-transplantation; settings: in vivo
[21] = system: Brassica oleracea var. capitata; experiment: Phytotoxicity against Brassica oleracea var. capitata (cabbage) assessed as yield at 1600 g a.i./ha applied 1 to 2 days prior to transplantation followed by incorporation into soil (reference value: 25.9 tons/ha); settings: in vivo, other
[22] = system: Brassica oleracea var. capitata; experiment: Phyototoxicity against Brassica oleracea var. capitata (cabbage) assessed as crop injury at 1600 g a.i./ha applied 1 to 2 days prior to transplantation measured on day 7 post-transplantation; settings: in vivo, other
[23] = system: Brassica oleracea var. capitata; experiment: Phytotoxicity against Brassica oleracea var. capitata (cabbage) assessed as decrease in number of marketable cabbage heads at 800 to 2400 g i.a./ha applied 1 to 2 days after transplantation relative to control; settings: in vivo
[24] = system: Brassica oleracea var. capitata; experiment: Phyototoxicity against Brassica oleracea var. capitata (cabbage) assessed as crop injury at 2400 g a.i./ha applied 1 to 2 days after transplantation measured on day 28 post-transplantation; settings: in vivo, other
[25] = system: Brassica oleracea var. capitata; experiment: Phytotoxicity against Brassica oleracea var. capitata (cabbage) assessed as cabbage head weight at 1600 g a.i/ha applied 1 to 2 days prior to transplantation (reference value: 2465 g); settings: in vivo, other
[26] = system: Brassica oleracea var. capitata; experiment: Phyototoxicity against Brassica oleracea var. capitata (cabbage) assessed as crop injury at 800 g a.i./ha applied 1 to 2 days prior to transplantation measured on day 14 post-transplantation; settings: in vivo, other
[27] = system: Brassica oleracea var. capitata; experiment: Phyototoxicity against Brassica oleracea var. capitata (cabbage) assessed as crop injury at 1600 g a.i./ha applied 1 to 2 days prior to transplantation measured on day 28 post-transplantation; settings: in vivo, other
[28] = system: Brassica oleracea var. capitata; experiment: Phyototoxicity against Brassica oleracea var. capitata (cabbage) assessed as crop injury at 800 g a.i./ha applied 1 to 2 days after transplantation measured on day 28 post-transplantation; settings: in vivo, other
[29] = system: Brassica oleracea var. capitata; experiment: Phyototoxicity against Brassica oleracea var. capitata (cabbage) assessed as crop injury at 1600 g a.i./ha applied 1 to 2 days prior to transplantation followed by incorporation into soil measured on day 7 post-transplantation; settings: in vivo, other
[30] = system: Brassica oleracea var. capitata; experiment: Phytotoxicity against Brassica oleracea var. capitata (cabbage) assessed as yield at 1600 g a.i./ha applied 1 to 2 days after transplantation (reference value: 25.9 tons/ha); settings: in vivo, other
[31] = system: Brassica oleracea var. capitata; experiment: Phytotoxicity against Brassica oleracea var. capitata (cabbage) assessed as cabbage head weight at 2400 g a.i/ha applied 1 to 2 days prior to transplantation followed by incorporation into soil (reference value: 2465 g); settings: in vivo, other
[32] = system: Brassica oleracea var. capitata; experiment: Phytotoxicity against Brassica oleracea var. capitata (cabbage) assessed as cabbage head weight at 800 g a.i/ha applied 1 to 2 days prior to transplantation followed by incorporation into soil (reference value: 2465 g); settings: in vivo, other
[33] = system: Brassica oleracea var. capitata; experiment: Phyototoxicity against Brassica oleracea var. capitata (cabbage) assessed as crop injury at 2400 g a.i./ha applied 1 to 2 days prior to transplantation measured on day 7 post-transplantation; settings: in vivo, other
[34] = system: Brassica oleracea var. capitata; experiment: Phyototoxicity against Brassica oleracea var. capitata (cabbage) assessed as crop injury at 800 g a.i./ha applied 1 to 2 days prior to transplantation followed by incorporation into soil measured on day 14 post-transplantation; settings: in vivo, other
[35] = system: Brassica oleracea var. capitata; experiment: Phytotoxicity against Brassica oleracea var. capitata (cabbage) assessed as yield at 2400 g a.i./ha applied 1 to 2 days prior to transplantation (reference value: 25.9 tons/ha); settings: in vivo, other
[36] = system: Brassica oleracea var. capitata; experiment: Phyototoxicity against Brassica oleracea var. capitata (cabbage) assessed as crop injury at 1600 g a.i./ha applied 1 to 2 days after transplantation measured on day 7 post-transplantation; settings: in vivo, other
[37] = system: Brassica oleracea var. capitata; experiment: Phytotoxicity against Brassica oleracea var. capitata (cabbage) assessed as yield at 800 g a.i./ha applied 1 to 2 days prior to transplantation followed by incorporation into soil (reference value: 25.9 tons/ha); settings: in vivo, other
[38] = system: Brassica oleracea var. capitata; experiment: Phyototoxicity against Brassica oleracea var. capitata (cabbage) assessed as crop injury at 2400 g a.i./ha applied 1 to 2 days prior to transplantation measured on day 14 post-transplantation; settings: in vivo, other
[39] = system: Brassica oleracea var. capitata; experiment: Phytotoxicity against Brassica oleracea var. capitata (cabbage) assessed as yield at 2400 g a.i./ha applied 1 to 2 days prior to transplantation followed by incorporation into soil (reference value: 25.9 tons/ha); settings: in vivo, other
[40] = system: Brassica oleracea var. capitata; experiment: Phytotoxicity against Brassica oleracea var. capitata (cabbage) assessed as decrease in number of marketable cabbage heads at 800 to 2400 g i.a./ha applied 1 to 2 days prior to transplantation relative to control; settings: in vivo, other
[41] = system: Brassica oleracea var. capitata; experiment: Phyototoxicity against Brassica oleracea var. capitata (cabbage) assessed as crop injury at 800 g a.i./ha applied 1 to 2 days prior to transplantation followed by incorporation into soil measured on day 28 post-transplantation; settings: in vivo, other
[42] = system: Brassica oleracea var. capitata; experiment: Phyototoxicity against Brassica oleracea var. capitata (cabbage) assessed as crop injury at 1600 g a.i./ha applied 1 to 2 days prior to transplantation measured on day 14 post-transplantation; settings: in vivo, other
[43] = system: Brassica oleracea var. capitata; experiment: Phyototoxicity against Brassica oleracea var. capitata (cabbage) assessed as crop injury at 800 g a.i./ha applied 1 to 2 days prior to transplantation measured on day 28 post-transplantation; settings: in vivo, other
[44] = system: Brassica oleracea var. capitata; experiment: Phytotoxicity against Brassica oleracea var. capitata (cabbage) assessed as cabbage head weight at 1600 g a.i/ha applied 1 to 2 days prior to transplantation followed by incorporation into soil (reference value: 2465 g); settings: in vivo, other
[45] = system: Brassica oleracea var. capitata; experiment: Phyototoxicity against Brassica oleracea var. capitata (cabbage) assessed as crop injury at 800 g a.i./ha applied 1 to 2 days after transplantation measured on day 14 post-transplantation; settings: in vivo
[46] = system: Brassica oleracea var. capitata; experiment: Phytotoxicity against Brassica oleracea var. capitata (cabbage) assessed as cabbage head weight at 2400 g a.i/ha applied 1 to 2 days after transplantation (reference value: 2465 g); settings: in vivo, other
[47] = system: Brassica oleracea var. capitata; experiment: Phytotoxicity against Brassica oleracea var. capitata (cabbage) assessed as cabbage head weight at 800 g a.i/ha applied 1 to 2 days prior to transplantation (reference value: 2465 g); settings: in vivo
[48] = system: Brassica oleracea var. capitata; experiment: Phyototoxicity against Brassica oleracea var. capitata (cabbage) assessed as crop injury at 800 g a.i./ha applied 1 to 2 days prior to transplantation followed by incorporation into soil measured on day 7 post-transplantation; settings: in vivo, other

## CCc1cccc(C)c1N(C(=O)CCl)[C@@H](C)COC [S-METOLACHLOR]
[1]
  Crop_yield: 27.7 tons/ha
[2]
  Activity: 2460 g
[3]
  Activity: 2556 g
[4]
  Crop_yield: 24.5 tons/ha
[5]
  Activity: 0%
[6]
  Activity: 0%
[7]
  Activity: 2%
[8]
  Activity: 0%
[9]
  Activity: 0%
[10]
  Crop_yield: 27.1 tons/ha
[11]
  Crop_yield: 26.7 tons/ha
[12]
  Activity: 0%
[13]
  Activity: 1%
[14]
  Activity: 0%
[15]
  Activity: Non-toxic
[16]
  Activity: 0%
[17]
  Activity: 2310 g
[18]
  Activity: 3%
[19]
  Activity: 0%
[20]
  Activity: 0%
[21]
  Crop_yield: 23.4 tons/ha
[22]
  Activity: 2%
[23]
  Activity: Non-toxic
[24]
  Activity: 0%
[25]
  Activity: 2540 g
[26]
  Activity: 0%
[27]
  Activity: 0%
[28]
  Activity: 0%
[29]
  Activity: 3%
[30]
  Crop_yield: 26.4 tons/ha
[31]
  Activity: 2421 g
[32]
  Activity: 2413 g
[33]
  Activity: 3%
[34]
  Activity: 0%
[35]
  Crop_yield: 25.4 tons/ha
[36]
  Activity: 2%
[37]
  Crop_yield: 26.4 tons/ha
[38]
  Activity: 0%
[39]
  Crop_yield: 25.7 tons/ha
[40]
  Activity: Non-toxic
[41]
  Activity: 0%
[42]
  Activity: 1%
[43]
  Activity: 0%
[44]
  Activity: 2255 g
[45]
  Activity: 1%
[46]
  Activity: 2676 g
[47]
  Activity: 2386 g
[48]
  Activity: 2%

Source: ChEMBL document CHEMBL3046789, “Effect of s-metolachlor application timing on cabbage tolerance” (Crop Prot, 2007)
